Results: EPA's ToxRefDB 2

Key:
rat [1] = conditions: Combined chronic toxicity/carcinogenicity; fischer; Oral; Feed; dose end: 2 year; group: systemic; systemic / clinical chemistry / alkaline phosphatase (alp/alk) / alkaline phosphatase (alp/alk) + systemic / clinical chemistry / globulins…
rat [2] = conditions: Multigenerational reproductive toxicity study, sprague dawley, Oral, Feed, dose end: 2 generation
rat [3] = conditions: Prenatal developmental toxicity study, sprague dawley, Oral, Gavage/Intubation, dose end: 19 GD
mouse [4] = conditions: Carcinogenicity, b6c3f1, Oral, Feed, dose end: 18 month, group: systemic
dog [5] = conditions: Chronic toxicity, beagle, Oral, Feed, dose end: 104 week, group: systemic
rat [6] = conditions: Subchronic oral toxicity in rodents, other, Feed, dose end: 13 week, group: systemic, systemic / organ weight / liver / relative to body weight + systemic / organ weight / thymus / absolute + systemic / organ weight / thymus…
rabbit [7] = conditions: Prenatal developmental toxicity study; new zealand white; Oral; Gavage/Intubation; dose end: 18 GD; group: maternal; systemic / in life observation / body weight / body weight gain + systemic / in life observation / clinical signs / anorexia + systemic / in…
rat [8] = conditions: Prenatal developmental toxicity study, other, Oral, Gavage/Intubation, dose end: 15 GD
mouse [9] = conditions: Carcinogenicity; cd1; Oral; Feed; dose end: 87 week; group: systemic; systemic / clinical chemistry / alanine aminotransferase (alt/sgpt) / alanine aminotransferase (alt/sgpt) + systemic / clinical chemistry / …
rat [10] = conditions: Subchronic oral toxicity in rodents, sprague dawley, Diet, dose end: 13 week, group: systemic
rat [11] = conditions: Subchronic oral toxicity in rodents, long evans, Feed, dose end: 13 week, group: systemic, systemic / organ weight / liver / absolute + systemic / organ weight / liver / relative to body weight + systemic / pathology microscopic / …
rat [12] = conditions: Multigenerational reproductive toxicity study, sprague dawley, Oral, Feed, dose end: 2 generation; remark: listed apart in the source
rabbit [13] = conditions: Prenatal developmental toxicity study; new zealand white; Oral; Gavage/Intubation; dose end: 19 GD; group: maternal; reproductive / reproductive performance / aborted / aborted + reproductive / reproductive performance / resorptions / resorptions + systemic…
rabbit [14] = conditions: Prenatal developmental toxicity study, new zealand white, Oral, Gavage/Intubation, dose end: 19 GD
mouse [15] = conditions: Carcinogenicity, cd1, Oral, Feed, dose end: 78 week, group: systemic
rat [16] = conditions: Subchronic oral toxicity in rodents, other, [Not Specified], dose end: 13 week, group: systemic
rat [17] = conditions: Prenatal developmental toxicity study, sprague dawley, Oral, Gavage/Intubation, dose end: 15 GD
dog [18] = conditions: Chronic toxicity, beagle, Oral, Capsule, dose end: 52 week, group: systemic
rat [19] = conditions: Multigenerational reproductive toxicity study, sprague dawley, Oral, Feed, dose end: 2 generation; remark: listed apart in the source
rat [20] = conditions: Combined chronic toxicity/carcinogenicity, other, Oral, Feed, dose end: 100 week, group: systemic
[21] = group: offspring, developmental / offspring survival late / viability index / viability index + systemic / pathology microscopic / kidney / dilatation
[22] = group: offspring, developmental / offspring survival late / viability index / viability index + systemic / pathology microscopic / kidney / dilatation + …
[23] = group: parental, systemic / pathology microscopic / kidney / dilatation + systemic / in life observation / body weight / body weight + systemic / in life …
[24] = group: developmental, developmental / developmental malformation / bone / incomplete ossification + developmental / developmental malformation / brain / dilated …
[25] = group: maternal, systemic / in life observation / clinical signs / piloerection + systemic / in life observation / clinical signs / salivation
[26] = group: maternal, systemic / in life observation / clinical signs / piloerection + systemic / in life observation / clinical signs / salivation + reproductive…
[27] = systemic / organ weight / liver / absolute + systemic / in life observation / body weight / body weight
[28] = systemic / organ weight / liver / absolute + systemic / in life observation / body weight / body weight + systemic / organ weight / liver / …
[29] = systemic / clinical chemistry / alkaline phosphatase (alp/alk) / alkaline phosphatase (alp/alk) + systemic / in life observation / body …
[30] = systemic / in life observation / body weight / body weight gain + systemic / organ weight / liver / absolute + systemic / organ weight / …
[31] = group: developmental, developmental / developmental malformation / bone / bent + developmental / developmental malformation / bone / fused + developmental / …
[32] = group: maternal, systemic / in life observation / clinical signs / defecation + systemic / in life observation / clinical signs / defecation (diarrhea) + …
[33] = systemic / in life observation / clinical signs / anemia - microcytic + systemic / urinalysis / volume / volume + systemic / clinical …
[34] = group: offspring, systemic / in life observation / body weight / offspring (pup) weight + systemic / in life observation / body weight / offspring (pup) …
[35] = group: parental, systemic / pathology microscopic / kidney / hyperplasia + systemic / pathology microscopic / kidney / mineralization + systemic / pathology …
[36] = group: reproductive, reproductive / offspring survival early / birth index / live birth index
[37] = group: developmental, developmental / developmental malformation / bone / irregular ossification + developmental / developmental malformation / bone / misshapen …
[38] = group: maternal, systemic / in life observation / body weight / body weight gain + systemic / in life observation / food consumption / food consumption + …
[39] = systemic / pathology microscopic / liver / vacuolization
[40] = systemic / pathology microscopic / liver / vacuolization + systemic / in life observation / body weight / body weight gain + systemic / …
[41] = systemic / urinalysis / ph / ph
[42] = group: developmental, developmental / developmental malformation / bone / full supernumerary
[43] = group: maternal, systemic / in life observation / body weight / body weight gain
[44] = systemic / clinical chemistry / alanine aminotransferase (alt/sgpt) / alanine aminotransferase (alt/sgpt) + systemic / clinical chemistry / …
[45] = systemic / in life observation / body weight / body weight gain
[46] = group: offspring, developmental / offspring survival late / viability index / viability index
[47] = group: offspring, developmental / offspring survival late / viability index / viability index + systemic / in life observation / body weight / offspring (pup…
[48] = group: parental, systemic / in life observation / body weight / body weight + systemic / in life observation / mortality / mortality + systemic / pathology …
[49] = systemic / pathology gross / adrenal gland / enlarged

O=C([O-])c1cc(Oc2ccc(C(F)(F)F)cc2Cl)ccc1[N+](=O)[O-].[Na+] [Acifluorfen-sodium]
LEL (rat [1]): 125 mg/kg/day
LOAEL (rat [1]): 125 mg/kg/day
NEL (rat [1]): 25 mg/kg/day
NOAEL (rat [1]): 25 mg/kg/day
LEL (rat [2]; [21]): 50 mg/kg/day
LOAEL (rat [2]; [21]): 50 mg/kg/day
NEL (rat [2]; [22]): 2.5 mg/kg/day
NOAEL (rat [2]; [22]): 2.5 mg/kg/day
LOAEL (rat [2]; group: parental, systemic / pathology microscopic / kidney / dilatation): 50 mg/kg/day
NEL (rat [2]; [23]): 2.5 mg/kg/day
NOAEL (rat [2]; [23]): 2.5 mg/kg/day
LEL (rat [2]; group: parental, systemic / pathology microscopic / kidney / dilatation + systemic / in life observation / body weight / body weight gain): 50 mg/kg/day
LEL (rat [3]; [24]): 90 mg/kg/day
LOAEL (rat [3]; [24]): 90 mg/kg/day
NEL (rat [3]; [24]): 20 mg/kg/day
NOAEL (rat [3]; [24]): 20 mg/kg/day
LEL (rat [3]; [25]): 90 mg/kg/day
LOAEL (rat [3]; [25]): 90 mg/kg/day
NEL (rat [3]; [26]): 20 mg/kg/day
NOAEL (rat [3]; [26]): 20 mg/kg/day
LOAEL (mouse [4]; [27]): 119 mg/kg/day
NOAEL (mouse [4]; [27]): < 119 mg/kg/day
LEL (mouse [4]; [28]): 119 mg/kg/day
NEL (mouse [4]; [28]): < 119 mg/kg/day

CCOc1cc(Oc2ccc(C(F)(F)F)cc2Cl)ccc1[N+](=O)[O-] [Oxyfluorfen]
LOAEL (dog [5]; [29]): 18.5 mg/kg/day
NOAEL (dog [5]; [29]): 3.1 mg/kg/day
LEL (dog [5]; [30]): 3 mg/kg/day
NEL (dog [5]; [30]): < 3 mg/kg/day
LEL (rat [6]): 71 mg/kg/day
LOAEL (rat [6]): 71 mg/kg/day
NEL (rat [6]): 14 mg/kg/day
NOAEL (rat [6]): 14 mg/kg/day
LEL (rabbit [7]): 30 mg/kg/day
LOAEL (rabbit [7]): 30 mg/kg/day
NEL (rabbit [7]): 10 mg/kg/day
NOAEL (rabbit [7]): 10 mg/kg/day
LEL (rat [8]; [31]): 183 mg/kg/day
LOAEL (rat [8]; [31]): 183 mg/kg/day
NEL (rat [8]; [31]): 18 mg/kg/day
NOAEL (rat [8]; [31]): 18 mg/kg/day
LEL (rat [8]; [32]): 183 mg/kg/day
LOAEL (rat [8]; [32]): 183 mg/kg/day
NEL (rat [8]; [32]): 18 mg/kg/day
NOAEL (rat [8]; [32]): 18 mg/kg/day
LEL (mouse [9]): 33 mg/kg/day
LOAEL (mouse [9]): 33 mg/kg/day
NEL (mouse [9]): 3 mg/kg/day
NOAEL (mouse [9]): 3 mg/kg/day
LEL (rat [10]; systemic / hematology / mean corpuscular (cell) volume (mcv) / mean corpuscular (cell) volume (mcv) + systemic / hematology / mean …): 144 mg/kg/day
LOAEL (rat [10]; systemic / in life observation / clinical signs / anemia - microcytic + systemic / urinalysis / volume / volume): 585 mg/kg/day
NEL (rat [10]; [33]): 46.7 mg/kg/day
NOAEL (rat [10]; [33]): 144 mg/kg/day
LEL (rat [11]): 51.4 mg/kg/day
LOAEL (rat [11]): 51.4 mg/kg/day
NEL (rat [11]): < 51.4 mg/kg/day
NOAEL (rat [11]): < 51.4 mg/kg/day
LEL (rat [12]; [34]): 146 mg/kg/day
LOAEL (rat [12]; [34]): 146 mg/kg/day
NEL (rat [12]; [34]): 36.4 mg/kg/day
NOAEL (rat [12]; [34]): 36.4 mg/kg/day
LEL (rat [12]; [35]): 120 mg/kg/day
LOAEL (rat [12]; [35]): 120 mg/kg/day
NEL (rat [12]; [35]): 30.9 mg/kg/day
NOAEL (rat [12]; [35]): 30.9 mg/kg/day
LEL (rat [12]; [36]): 146 mg/kg/day
LOAEL (rat [12]; [36]): 146 mg/kg/day
NEL (rat [12]; [36]): 36.4 mg/kg/day
NOAEL (rat [12]; [36]): 36.4 mg/kg/day
LEL (rabbit [13]): 90 mg/kg/day
LOAEL (rabbit [13]): 90 mg/kg/day
NEL (rabbit [13]): 30 mg/kg/day
NOAEL (rabbit [13]): 30 mg/kg/day

CC1(C)CC/C(=C\c2ccc(Cl)cc2)C1(O)Cn1cncn1 (stereo unspecified) [Triticonazole]
LEL (rabbit [14]; [37]): 75 mg/kg/day
LOAEL (rabbit [14]; [37]): 75 mg/kg/day
NEL (rabbit [14]; [37]): 50 mg/kg/day
NOAEL (rabbit [14]; [37]): 50 mg/kg/day
LEL (rabbit [14]; [38]): 50 mg/kg/day
LOAEL (rabbit [14]; [38]): 50 mg/kg/day
NEL (rabbit [14]; [38]): 25 mg/kg/day
NOAEL (rabbit [14]; [38]): 25 mg/kg/day
NEL (mouse [15]; [39]): 17.4 mg/kg/day
NOAEL (mouse [15]; [39]): 17.4 mg/kg/day
LEL (mouse [15]; [40]): 202 mg/kg/day
LOAEL (mouse [15]; [40]): 202 mg/kg/day
LOAEL (rat [16]; systemic / pathology microscopic / adrenal gland / vacuolization): 19.8 mg/kg/day
NOAEL (rat [16]; systemic / pathology microscopic / adrenal gland / vacuolization + systemic / clinical chemistry / alkaline phosphatase (alp/alk) / alkaline…): 2 mg/kg/day
LEL (rat [16]; [41]): 2.2 mg/kg/day
NEL (rat [16]; [41]): < 2.2 mg/kg/day
LEL (rat [17]; [42]): 1000 mg/kg/day
LOAEL (rat [17]; [42]): 1000 mg/kg/day
NEL (rat [17]; [42]): 200 mg/kg/day
NOAEL (rat [17]; [42]): 200 mg/kg/day
LEL (rat [17]; [43]): 1000 mg/kg/day
LOAEL (rat [17]; [43]): 1000 mg/kg/day
NEL (rat [17]; [43]): 200 mg/kg/day
NOAEL (rat [17]; [43]): 200 mg/kg/day
LOAEL (dog [18]; [44]): 150 mg/kg/day
NOAEL (dog [18]; [44]): 25 mg/kg/day
LEL (dog [18]; [45]): 2.5 mg/kg/day
NEL (dog [18]; [45]): < 2.5 mg/kg/day
LEL (rat [19]; [46]): 0.25 mg/kg/day
NEL (rat [19]; [46]): < 0.25 mg/kg/day
LOAEL (rat [19]; [47]): 250 mg/kg/day
NOAEL (rat [19]; [47]): 37.5 mg/kg/day
LOAEL (rat [19]; [48]): 250 mg/kg/day
NOAEL (rat [19]; [48]): 37.5 mg/kg/day
NEL (rat [19]; group: parental, systemic / in life observation / body weight / body weight + systemic / pathology microscopic / adrenal gland / vacuolization + systemic / …): 1.25 mg/kg/day
LEL (rat [19]; group: parental, systemic / organ weight / adrenal gland / absolute): 37.5 mg/kg/day
LEL (rat [19]; [36]): 0.25 mg/kg/day
NEL (rat [19]; [36]): < 0.25 mg/kg/day
LOAEL (rat [19]; group: reproductive, reproductive / reproductive performance / fertility / fertility): 250 mg/kg/day
NOAEL (rat [19]; group: reproductive, reproductive / reproductive performance / fertility / fertility + reproductive / offspring survival early / birth index / live birth index…): 37.5 mg/kg/day
LEL (rat [20]; [49]): 0.2 mg/kg/day
NEL (rat [20]; [49]): < 0.2 mg/kg/day
LOAEL (rat [20]; systemic / pathology microscopic / adrenal gland / inflammation + systemic / in life observation / body weight / body weight + systemic / in…): 287 mg/kg/day
NOAEL (rat [20]; systemic / pathology microscopic / adrenal gland / inflammation + systemic / pathology microscopic / adrenal gland / atypia nuclear): 38.3 mg/kg/day
